Laboratory results as given in patent US20200023067A1, “DUAL-ACTION ELAFIBRANOR METFORMIN SALT FOR TREATING OBESITY ASSOCIATED WITH NON-ALCOHOLIC STEATOHEPATITIS (NASH) AND […]” (NASHPHARM, priority 2016, published 2020).
≈ marks a conversion by molar mass, not a printed value. Where “and” joins values, the source holds several entries; their conditions need not be identical. Identical values can stand only once. Like-named read-outs stand apart in the source and are kept apart here.

Key:
Format in all cases: physicochemical
[1] = Solubility test on the elafibranor (GFT505) metformin salt; settings: organic solvent or mixture, thermodynamic from solid, ambient temperature
[2] = Thermodynamic solubility of elafibranor in aqueous buffers and cosolvents; settings: for solubility at 24 h: read-out: Solubility after 24 hours
[3] = Solubility test on the elafibranor (GFT505) metformin salt; settings: aqueous buffer, thermodynamic from solid
Procedure: The solubility kinetics is determined in an aqueous medium (water and pharmacopoeia buffers), at ambient temperature.

[4] = Thermodynamic solubility of elafibranor in aqueous buffers and cosolvents; settings: for solubility at 72 h / solubility at 24 h / solubility: 23 °C, thermodynamic from solid; for solubility at 72 h / solubility at 24 h: ambient temperature (22°-24° C.); for solubility at 72 h: read-out: Solubility after 72 hours; for solubility at 24 h: read-out: Solubility after 24 hours
Procedure: The thermodynamic solubility of the basic elafibranor is studied over a period of 24 hours and 72 hours in various aqueous buffers in the presence or not of surfactants. Batch number EM0274L2 is used for this work. After 24 hours and 72 hours of incubation at ambient temperature (22°-24° C.), the solutions are sampled and then filtered over 0.2 μm polycarbonate filters in flasks for LCMS analyses, and diluting once in DMSO before stirring for 2 minutes (vortex or sonification).

[5] = Stability after exposure to light and temperature, by UPLC MS; settings: powder form or solution; daylight, ambient temperature; compared with the salt
Procedure: The products were exposed to daylight and to ambient temperature.
The reference samples for their part are stored cool (2°-8° C.), protected from light by aluminum paper and under inert gas for the solid product.

[6] = aqueous buffer, aqueous buffer, Buffer pH 4.6
[7] = aqueous buffer, aqueous buffer, Buffer pH 7.4
[8] = aqueous buffer, aqueous buffer, Buffer pH 8.5

solubility ([1]; Polyethylene glycol 400): 39000 µM and 15000 µg/mL
solubility ([1]; Propylene glycol): 33500 µM and 12900 µg/mL
solubility at 24 h ([2]; 23 °C, organic solvent or mixture, thermodynamic from solid, Polyethylene glycol 400, ambient temperature (22°-24° C.)): 39000 µM and 15000 µg/mL
solubility at 72 h ([2]; 23 °C, organic solvent or mixture, thermodynamic from solid, Polyethylene glycol 400, ambient temperature (22°-24° C.), read-out: Solubility after 72 hours): 41000 µM and 15800 µg/mL
solubility at 24 h ([2]; 23 °C, organic solvent or mixture, thermodynamic from solid, Propylene glycol, ambient temperature (22°-24° C.)): 33500 µM and 12900 µg/mL
Effect of cosolvent on solubility ([2]; addition of cosolvent such as propylene glycol or PEG 400): significantly improves the solubility
solubility ([3]; Buffer pH 4.6, ambient temperature): 114 µM and 44 µg/mL
solubility ([3]; Buffer pH 7.4, ambient temperature): 504 µM and 194 µg/mL
solubility ([3]; Buffer pH 8.5, ambient temperature): 4420 µM and 1700 µg/mL
solubility at 72 h ([4]; organic solvent or mixture, Propylene glycol): 35100 µM and 13500 µg/mL
solubility at 24 h [4, 6]: 114 µM and 44 µg/mL
solubility at 72 h [4, 6]: 110 µM and 42 µg/mL
solubility at 24 h [4, 7]: 504 µM and 194 µg/mL
solubility at 72 h [4, 7]: 609 µM and 234 µg/mL
solubility at 24 h [4, 8]: 4420 µM and 1700 µg/mL
solubility at 72 h [4, 8]: 4270 µM and 1640 µg/mL
solubility ([4]; aqueous buffer, pH 4.6, aqueous buffer): 114 µM (≈ 43.8 µg/mL)
solubility ([4]; aqueous buffer, pH 8.5, aqueous buffer): 4420 µM (≈ 1700 µg/mL)
Solubility in an aqueous medium ([4]; aqueous medium): low
Sensitivity to light (photosensitivity) [5]: more sensitive to light
Structure (SMILES): CSc1ccc(C(=O)/C=C/c2cc(C)c(OC(C)(C)C(=O)O)c(C)c2)cc1 [elafibranor, 2-[2,6 dimethyl-4-[3-[4-(methylthio)phenyl]-3-oxo-1(E)-propenyl]phenoxyl]-2-methylpropanoic acid]
